Reference: ChEMBL document CHEMBL2311283, “Structural modifications to tetrahydropyridine-3-carboxylate esters en route to the discovery of M5-preferring muscarinic receptor orthosteric antagonists” (J Med Chem, 2013)

Key:
[1] = target: T1, Muscarinic acetylcholine receptor M1 (Homo sapiens, UniProt P11229); assay: biochemical; assay type: cell-based, CHO-K1
T1 sequence (P11229 whole entry): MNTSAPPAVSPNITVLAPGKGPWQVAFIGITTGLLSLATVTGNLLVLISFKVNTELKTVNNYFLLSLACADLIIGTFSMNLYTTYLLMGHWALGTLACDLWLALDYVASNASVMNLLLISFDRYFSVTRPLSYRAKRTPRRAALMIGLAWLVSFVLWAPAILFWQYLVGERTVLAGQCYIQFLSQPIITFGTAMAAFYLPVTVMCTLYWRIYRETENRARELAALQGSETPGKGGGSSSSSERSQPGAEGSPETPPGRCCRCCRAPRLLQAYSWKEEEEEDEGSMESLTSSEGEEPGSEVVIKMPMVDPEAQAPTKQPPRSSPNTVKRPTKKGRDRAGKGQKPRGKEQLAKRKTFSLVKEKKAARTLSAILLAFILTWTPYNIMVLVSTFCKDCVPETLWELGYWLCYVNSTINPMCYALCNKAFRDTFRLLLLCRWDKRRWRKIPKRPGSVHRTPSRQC

[2] = target: T2, Muscarinic acetylcholine receptor M5 (Homo sapiens, UniProt P08912); assay: Displacement of [3H]NMS from human M5 muscarinic receptor expressed in CHO-K1 cells; assay type: cell-based
T2 sequence (P08912 whole entry): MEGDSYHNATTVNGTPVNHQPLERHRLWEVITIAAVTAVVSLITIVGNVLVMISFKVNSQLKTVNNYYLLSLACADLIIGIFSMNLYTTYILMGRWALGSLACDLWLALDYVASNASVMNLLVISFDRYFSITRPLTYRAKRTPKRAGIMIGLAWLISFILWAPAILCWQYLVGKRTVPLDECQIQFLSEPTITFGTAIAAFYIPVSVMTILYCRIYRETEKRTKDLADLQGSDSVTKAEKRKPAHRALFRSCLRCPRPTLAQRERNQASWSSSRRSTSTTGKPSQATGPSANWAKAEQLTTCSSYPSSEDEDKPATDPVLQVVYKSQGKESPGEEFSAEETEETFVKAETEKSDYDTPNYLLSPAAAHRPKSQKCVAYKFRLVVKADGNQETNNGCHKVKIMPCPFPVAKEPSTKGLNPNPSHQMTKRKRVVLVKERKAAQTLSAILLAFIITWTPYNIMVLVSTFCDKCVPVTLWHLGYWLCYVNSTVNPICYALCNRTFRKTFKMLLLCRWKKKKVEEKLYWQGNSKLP

Homo sapiens [3] = organism: Homo sapiens; assay: Selectivity index, ratio of Ki for human M1 muscarinic receptor to Ki for human M5 muscarinic receptor
[4] = target: T3, Muscarinic acetylcholine receptor M2 (Homo sapiens, UniProt P08172); assay: Displacement of [3H]NMS from human M2 muscarinic receptor expressed in CHO-K1 cells; assay type: cell-based
T3 sequence (P08172 whole entry): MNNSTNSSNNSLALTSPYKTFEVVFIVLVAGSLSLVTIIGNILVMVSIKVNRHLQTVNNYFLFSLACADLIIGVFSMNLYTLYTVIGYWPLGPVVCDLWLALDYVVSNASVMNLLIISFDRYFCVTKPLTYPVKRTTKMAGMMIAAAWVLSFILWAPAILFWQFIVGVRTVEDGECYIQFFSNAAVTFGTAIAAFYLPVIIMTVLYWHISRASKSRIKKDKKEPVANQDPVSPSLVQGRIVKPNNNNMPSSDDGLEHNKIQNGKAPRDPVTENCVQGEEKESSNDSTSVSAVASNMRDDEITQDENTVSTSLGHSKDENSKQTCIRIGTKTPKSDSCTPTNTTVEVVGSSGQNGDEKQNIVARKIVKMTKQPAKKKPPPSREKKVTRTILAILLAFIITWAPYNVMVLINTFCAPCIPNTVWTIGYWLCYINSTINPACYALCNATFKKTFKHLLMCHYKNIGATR

Homo sapiens [5] = organism: Homo sapiens; assay: Selectivity index, ratio of Ki for human M4 muscarinic receptor to Ki for human M5 muscarinic receptor
[6] = target: T4, Muscarinic acetylcholine receptor M4 (Homo sapiens, UniProt P08173); assay: Displacement of [3H]NMS from human M4 muscarinic receptor expressed in CHO-K1 cells; assay type: cell-based
T4 sequence (P08173 whole entry): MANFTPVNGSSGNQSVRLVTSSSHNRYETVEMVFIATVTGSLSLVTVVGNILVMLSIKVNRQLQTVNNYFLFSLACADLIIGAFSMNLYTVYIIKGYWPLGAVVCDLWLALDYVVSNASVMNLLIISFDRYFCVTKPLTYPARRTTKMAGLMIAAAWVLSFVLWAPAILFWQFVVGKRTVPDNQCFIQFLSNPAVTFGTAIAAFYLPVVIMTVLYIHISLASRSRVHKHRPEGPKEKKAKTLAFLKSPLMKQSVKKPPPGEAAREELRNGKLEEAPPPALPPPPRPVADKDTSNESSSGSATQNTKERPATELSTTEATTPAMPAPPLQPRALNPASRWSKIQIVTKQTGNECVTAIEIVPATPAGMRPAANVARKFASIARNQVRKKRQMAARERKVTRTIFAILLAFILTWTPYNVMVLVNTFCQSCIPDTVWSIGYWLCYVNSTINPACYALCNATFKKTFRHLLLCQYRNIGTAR

Homo sapiens [7] = organism: Homo sapiens; assay: Selectivity index, ratio of Ki for human M3 muscarinic receptor to Ki for human M5 muscarinic receptor
[8] = target: Muscarinic acetylcholine receptor M3 (Homo sapiens, UniProt P20309); assay: Displacement of [3H]NMS from human M3 muscarinic receptor expressed in CHO-K1 cells; assay type: cell-based
Chain of Muscarinic acetylcholine receptor M3 (P20309 whole entry): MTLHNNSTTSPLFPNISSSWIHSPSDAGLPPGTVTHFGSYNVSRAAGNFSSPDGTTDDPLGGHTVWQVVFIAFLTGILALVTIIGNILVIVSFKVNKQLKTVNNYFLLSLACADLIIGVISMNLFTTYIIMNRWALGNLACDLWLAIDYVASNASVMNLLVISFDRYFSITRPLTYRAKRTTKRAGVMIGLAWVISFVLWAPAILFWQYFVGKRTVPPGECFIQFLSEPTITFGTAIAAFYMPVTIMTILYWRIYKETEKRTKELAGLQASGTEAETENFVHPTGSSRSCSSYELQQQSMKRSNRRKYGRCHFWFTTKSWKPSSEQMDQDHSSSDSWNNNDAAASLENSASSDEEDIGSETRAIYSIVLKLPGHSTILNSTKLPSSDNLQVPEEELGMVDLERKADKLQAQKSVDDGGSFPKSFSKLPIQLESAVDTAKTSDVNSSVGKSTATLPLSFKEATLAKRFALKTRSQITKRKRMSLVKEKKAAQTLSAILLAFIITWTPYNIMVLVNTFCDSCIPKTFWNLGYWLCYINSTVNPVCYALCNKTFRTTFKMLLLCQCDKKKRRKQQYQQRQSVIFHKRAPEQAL

SMILES	Ki [1] [nM]	Ki [2] [nM]	Ratio Ki (Homo sapiens [3])	Ki [4] [nM]	Ratio Ki (Homo sapiens [5])	Ki [6] [nM]	Ratio Ki (Homo sapiens [7])	Ki [8] [nM]
CCOC(=O)C1=C(c2ccccc2)CCN(CCc2ccc(OC)cc2)C1	> 100000	> 100000						
COc1cccc(C2=C(C(=O)OCCc3ccc4c(c3)CCO4)CN(C)CC2)c1	2430	2680	0.9					
CN1CCC(c2ccccc2F)=C(C(=O)OCCc2ccc3c(c2)CCO3)C1	5270	740	7	540	7.8	5740	6.6	4890
CCN1CCC(c2ccccc2)=C(C(=O)OCCc2cccc(OC)c2)C1	470	150	3.1					
CN1CCC(c2cccc(F)c2)=C(C(=O)OCCc2ccc3c(c2)CCO3)C1	> 100000	> 100000						
CCOC(=O)C1=C(c2ccccc2)CCN(C2CCN(C(=O)c3c(C)cccc3C)CC2)C1	> 100000	> 100000						
CCOC(=O)C1=C(c2ccccc2)CCN(C2CCN(S(=O)(=O)c3ccc(C)cc3)CC2)C1	> 100000	> 100000						
CCOC(=O)C1=C(c2ccccc2)CCN(CCc2ccccc2)C1	> 100000	> 100000						
CN1CCC(c2ccccc2)=C(C(=O)OCCc2ccc3c(c2)CCO3)C1	290	60	4.8	1170	32	1890	47	2840
CCN1CCC(c2ccccc2)=C(C(=O)OCCCc2ccc(OC)cc2)C1				2030		11500		4070
COc1ccc(CCOC(=O)C2=C(c3ccccc3OC)CCN(C)C2)cc1OC	> 100000	> 100000						
CCN1CCC(c2ccc(F)cc2)=C(C(=O)OCCc2ccc3c(c2)CCO3)C1	7900	2350	3.4					
CCCCN1CCC(c2ccccc2)=C(C(=O)OCCc2ccc3c(c2)CCO3)C1	> 100000	> 100000						
Cc1cccc(CCOC(=O)C2=C(c3ccccc3)CCN(C)C2)c1	880	280	3.1					
CN1CCC(c2ccccc2)=C(C(=O)OCCc2ccc(S(C)(=O)=O)cc2)C1	510	110	4.6					
COc1ccc(CCOC(=O)C2=C(c3ccccc3)CCN(C)C2)cc1C	2700	740	3.6					
COc1ccccc1C1=C(C(=O)OCCc2ccc3c(c2)CCO3)CN(C)CC1	8350	2410	3.5					
CCOC(=O)C1=C(c2ccccc2)CCN(CCc2ccc3c(c2)CCO3)C1	> 100000	> 100000						
COc1ccc(CCOC(=O)C2=C(c3ccccc3F)CCN(C)C2)cc1OC	> 100000	> 100000						
COc1cccc(C2=C(C(=O)OCCc3ccc(OC)c(OC)c3)CN(C)CC2)c1	> 100000	> 100000						
CCN1CCC(c2ccccc2)=C(C(=O)OCCc2ccc([N+](=O)[O-])cc2)C1	810	440	1.8					
CCN1CCC(c2ccccc2)=C(C(=O)OCc2ccc3c(c2)OCO3)C1	60	120	0.5					
CCN1CCC(c2ccccc2)=C(C(=O)OCCc2ccc(OC)c(F)c2)C1	11700	2460	4.8					
CCN1CCC(c2ccccc2)=C(C(=O)OCCc2ccc3c(c2)CCO3)C1	1390	230	6	> 100000	46	10500	135	31100

SMILES	Ki [1] [nM]	Ki [2] [nM]	Ratio Ki (Homo sapiens [3])	Ki [4] [nM]	Ratio Ki (Homo sapiens [5])	Ki [6] [nM]	Ratio Ki (Homo sapiens [7])	Ki [8] [nM]
CCN1CCC(c2ccccc2)=C(C(=O)OCCc2ccsc2)C1	140	190	0.7					
CN1CCC(c2ccccc2)=C(C(=O)OCCCc2ccc3c(c2)CCO3)C1	920	630	1.5					
CCCCN1CCC(c2ccccc2)=C(C(=O)OCCc2ccc(OC)cc2)C1	> 100000	> 100000						
CN1CCC(c2ccccc2)=C(C(=O)OCCc2cccc(F)c2)C1	330	80	4.1					
CCCN1CCC(c2ccccc2)=C(C(=O)OCCc2ccc(OC)cc2)C1	> 100000	> 100000						
CCOC(=O)C1=C(c2ccccc2)CCN(CCc2ccc3c(c2)OCO3)C1	> 100000	> 100000						
CCN1CCC(c2ccccc2)=C(C(=O)OCCc2cc(OC)c(OC)c(OC)c2)C1	> 100000	> 100000						
CN1CCC(c2ccccc2)=C(C(=O)OCc2ccc3c(c2)CCO3)C1	> 100000	> 100000						
CSc1ccc(CCOC(=O)C2=C(c3ccccc3)CCN(C)C2)cc1	340	190	1.8					
CN1CCC(C(=O)OCCc2ccc3c(c2)CCO3)=C(c2ccccc2)C1	210	1140						
COc1ccc(CCOC(=O)C2=C(c3ccccc3)CN(C)CC2)cc1OC	6160	2620						
CCOC(=O)C1=C(c2ccccc2)CCN(C2CCN(C(=O)c3c(Cl)cccc3Cl)CC2)C1	> 100000	> 100000						
COc1ccc(CCCCOC(=O)C2=C(c3ccccc3)CCN(C)C2)cc1	5400	1160	4.7					
COC(COC(=O)C1=C(c2ccccc2)CCN(C)C1)c1ccccc1 (stereo not given)	> 100000	> 100000						
CCCN1CCC(c2ccccc2)=C(C(=O)OCCc2ccc3c(c2)CCO3)C1	> 100000	> 100000						
CN1CC=C(c2ccccc2C(=O)OCCc2ccc3c(c2)CCO3)CC1	> 100000	> 100000						
CCN1CCC(c2ccccc2)=C(C(=O)OCc2ccc(OC)cc2)C1	3060	3610	0.8					
COc1ccc(CCOC(=O)C2=C(c3cccc(F)c3)CCN(C)C2)cc1OC	27000	3340	8.1	> 100000	> 30	> 100000	> 30	> 100000
CCN1CCC(c2ccccc2)=C(C(=O)OCCc2ccc(S(C)(=O)=O)cc2)C1	> 100000	> 100000						
COc1ccc(CCOC(=O)C2=C(c3ccccc3)CCN(C)C2)cc1	20	30	0.7					
CCN1CCC(c2ccccc2)=C(C(=O)O[C@@H](C)Cc2ccc(OC)cc2)C1	> 100000	> 100000						
COc1ccc(OCCOC(=O)C2=C(c3ccccc3)CCN(C)C2)cc1	6190	3070	2					
CCN1CCC(c2ccccc2)=C(C(=O)OCCc2ccc3c(c2)OCO3)C1	200	280	0.7					
COc1ccc(CCOC(=O)C2=C(c3ccccc3)CCN(Cc3ccc(OC)cc3)C2)cc1	> 100000	> 100000						
